Read-outs that look alike come from different tables or passages of the source.
Columns and labels:
[1] = test system: cIAP2−/− mice and littermate controls; conditions: for LD100: i.p.
Method: Mice were injected IP with a range of indicated LPS doses (n=15).
Schoemaker et al. proposed an important role of cIAP2 in LPS-induced death of liver cells sensitized to endotoxic shock by D-galactosamine (DGLN) (22). […] Thus to investigate the role of cIAP2 in an innate immune response, the cIAP2^−/− mice were treated with LPS.
Adult 4-6 week old mice (n=6 to 10) were injected intraperitoneally (i.p.) with a range of LPS doses (10 to 200 mg LPSD/kg) from E. coli (Sigma) in a total volume of 0.2 ml nonpyrogenic saline.

[2] = test system: cIAP2−/− and cIAP2+/+ mice; assay: Serum cytokine levels (ELISA) after i.p. LPS; format: in vivo, mouse
Method: LPS directly activates macrophages to produce large amounts of IL-1β and TNF-α and to mediate a cascade of events leading to endotoxic shock. We therefore assayed the levels of these pro-inflammatory cytokines in serum from cIAP2^−/− mice treated with LPS (35 mg LPS/kg). In cIAP2^−/− mice, IL-1β serum levels peaked at 4 h and then markedly dropped off (Table 4). This was in contrast to littermate controls where IL-1β levels decreased much later. […] As a further study, we also investigated the serum concentrations of IL-12 (Table 4) after an injection of LPS (35 mg/kg), yet again, we observed an attenuation of a macrophage cytokine, IL-12, by the 6 hour time point. Nevertheless, cIAP2^−/− mice did display early outward signs of sepsis, such as eye exudates and ruffled fur; however, their condition quickly ameliorated, corresponding to the observed waning of the LPS-induced inflammatory cytokines seen within the cIAP2^−/− mice.
Adult 4-6 week old mice (n=3), cIAP2^−/− and littermate control mice, were injected i.p. with a LD100 dose of LPS (35 mg LPS/kg). At the appropriate times mice were anesthetized with phenobarbital and killed by cervical dislocation. The plasma was then collected from these animals and used to determine serum concentrations of IL-1β, TNF-α and IL-12 via an ELISA kit (R & D Systems).

[3] = test system: liver-derived macrophages; assay: Liver-derived macrophage cell counts in liver sections after i.p. LPS; format: in vivo, mouse
Method: Liver tissue derived from cIAP2^−/− (upper panels) and cIAP2^+/+ mice (lower panels) pre-treated with LPS (35 mg/kg) for 2 hours (a) or 6 hours (b). cell counts (n=5, average of 3 sections (average of 5 fields per section) per mouse, P<0.01) are shown within each anti-F4/80 FITC conjugated antibody stained panel along with the standard deviation.
To determine the apoptotic sensitivity of cIAP2^−/− macrophages within an LPS-induced pro-inflammatory environment, the peritoneal macrophage cell numbers before and during an endotoxin-elicited response were assessed by trypan blue exclusion, Diff Quik™ staining kit and flow cytometry (using the macrophage marker PE conjugated α-F4/80 antibody). […] However, total lymphocyte cell count numbers (B and T cells) were comparatively unaffected in both animal types (FIG. 5D). In addition, at 5 hours post LPS injection both the peritoneal and splenic macrophages from cIAP2^−/− mice stained ˜100% positive for Annexin V (Table 5). Therefore, peritoneal and splenic macrophages from cIAP2^−/− mice undergoing LPS-induced endotoxic shock were highly sensitive to apoptotic stimuli compared to control littermates, in vivo. Liver-derived macrophages are key mediators of LPS-induced endotoxic shock (7, 12). Therefore, to further investigate the survival status of macrophages within LPS treated cIAP2^−/− mice we examined cell count levels of liver-derived macrophages within liver sections. Macrophage cell count numbers within both cIAP2^−/− and control mice were similar at 2 hours post-IP LPS treatment (FIG. 6A), 235+/−35 and 271+/−29, respectively (n=5, average of 3 sections (average of 5 fields per section) per mouse, P<0.01). However, at the 6 hour time point (FIG. 6B), there was a precipitous drop of liver-derived macrophages of the cIAP2^−/− mice, 21+/−12 versus that of the littermates, 148+/−19 (n=5, average of 3 sections (average of 5 fields per section) per mouse, P<0.01). Therefore, like peritoneal and splenic macrophages, the liver-derived macrophages from cIAP2^−/− are highly sensitive to LPS in vivo.

[4] = test system: xiap, ciap1 and ciap2 mRNA; assay: iap mRNA levels of LPS-treated peritoneal macrophages (quantitative RT-PCR); format: cell-based, mouse
Method: The iap mRNA levels of LPS-treated peritoneal macrophages derived from wild type C57Bl/6 mice relative to untreated controls were assayed. (A) xiap, ciap1, and ciap2 message levels of macrophages exposed to a range of LPS doses relative to untreated controls. (B) ciap2 mRNA message of macrophages exposed to LPS was assayed over 24 h. Results are mean±s.d. (n=5, average of triplicate wells per mouse, P<0.05).
LPS-induced activation of macrophages causes the upregulation of a multitude of genes, including the production/release of inflammatory mediators, the upregulation of cell surface receptors and of cell survival proteins. […] Therefore, the iap mRNA levels of LPS-treated macrophages, derived from the peritoneal cavity, were assayed relative to untreated controls. Peritoneal macrophages were cultured at 10^5 cell/well (96 well, flat bottom plate) and exposed to varying concentrations of LPS for 18 hours. […] In contrast, ciap2 levels increased dramatically, up to 30 fold above untreated controls (P<0.01 for all LPS doses) (FIG. 2A). The innate immune system provides protection within the first minutes to hours after a pathogenic challenge.
mRNA was extracted from mouse embryonic fibroblasts or peritoneal macrophages using Qiagen Rneasy 96 wells extraction kit (Qiagen, Mississauga, ON, Canada) and run on a TaqMan® instrument (Perkin-Elmer, Foster City, Calif.) using specific DNA probes for murine xiap, ciap1 and 2 and the TaqMan® EZ RT-PCR kit (Qiagen, Mississauga, ON, Canada).

[5] = cIAP2+/+ mice, 2 hours after i.p. LPS 35 mg/kg
[6] = cIAP2+/+ mice, 6 hours after i.p. LPS 35 mg/kg
[7] = cIAP2+/+ mice, 10 hours after i.p. LPS 35 mg/kg
[8] = cIAP2−/− mice, 2 hours after i.p. LPS 35 mg/kg
[9] = cIAP2−/− mice, 6 hours after i.p. LPS 35 mg/kg
[10] = cIAP2−/− mice, 10 hours after i.p. LPS 35 mg/kg
[11] = wild type peritoneal macrophages, LPS 0.1 ng/ml to 10 mg/ml, 18 hours

With lipopolysaccharide [LPS] the Survival ([1]; all littermate controls, LPS dose of 60 mg/kg and above) was “did not survive past the first day”, the Survival time ([1]; cIAP2−/− mice, LPS dose of 200 mg LPS/kg) was 2 to 7 days and the LD100 ([1]; cIAP2−/− mice) was 100 mg LPS/kg. For the same substance, the “Time within which all died” value ([1]; control littermates, 40 mg LPS/kg) was ≤ 24 h, the LD100 ([1]; control littermates) was 35 mg LPS/kg and the “LD100 of cIAP2−/− mice compared to that of control littermates” value ([1]; i.p. LPS) was “approximately 3 ×”. For the same substance, the “IL-1β Serum Levels” value [2, 5] was 476 ± 24 pg/mL, the “IL-12 Serum Leves” value [2, 5] was 210 ± 17 pg/mL and the “TNFα Serum Levels” value [2, 5] was 1623 ± 348 pg/mL. For the same substance, the “IL-1β Serum Levels” value [2, 6] was 993 ± 158 pg/mL, the “IL-12 Serum Leves” value [2, 6] was 260 ± 31 pg/mL and the “TNFα Serum Levels” value [2, 6] was 502 ± 56 pg/mL. For the same substance, the “IL-1β Serum Levels” value [2, 7] was 669 ± 48 pg/mL, the “TNFα Serum Levels” value [2, 7] was 371 ± 64 pg/mL and the “IL-1β Serum Levels” value [2, 8] was 314 ± 153 pg/mL. For the same substance, the “IL-12 Serum Leves” value [2, 8] was 152 ± 24 pg/mL, the “TNFα Serum Levels” value [2, 8] was 1589 ± 413 pg/mL and the “IL-1β Serum Levels” value [2, 9] was 476 ± 78 pg/mL. For the same substance, the “IL-12 Serum Leves” value [2, 9] was 11 ± 5 pg/mL, the “TNFα Serum Levels” value [2, 9] was 202 ± 89 pg/mL and the “IL-1β Serum Levels” value [2, 10] was 162 ± 21 pg/mL. For the same substance, the “TNFα Serum Levels” value [2, 10] was 8 ± 7 pg/mL, the “Time of peak IL-1β serum levels” value ([2]; cIAP2−/− mice, LPS 35 mg/kg) was 4 h and the TNF-α serum levels ([2]; cIAP2−/− mice, by 10 hours, LPS 35 mg/kg) was “approximately 10 pg/ml”. For the same substance, the “TNF-α serum levels (stabilized, maintained until death)” value ([2]; littermate controls, LPS 35 mg/kg) was “approximately 400 pg/ml”, the “Liver macrophage cell count” value ([3]; cIAP2−/− mice, 2 hours post-IP LPS (35 mg/kg)) was 235+/−35 and the “Liver macrophage cell count” value ([3]; cIAP2−/− mice, 6 hour time point post LPS (35 mg/kg)) was 21+/−12. For the same substance, the “Liver macrophage cell count” value ([3]; control mice, 2 hours post-IP LPS (35 mg/kg)) was 271+/−29, the “Liver macrophage cell count” value ([3]; littermates, 6 hour time point post LPS (35 mg/kg)) was 148+/−19 and the “ciap2 mRNA upregulation above untreated controls” value ([4]; 100 ng/1 ml LPS, within 1 hour, maintained for 24 hours) was > 20 fold. For the same substance, the “increase of ciap2 message above untreated controls” value ([4]; peritoneal-derived macrophages, in less than one hour) was 2o, the “Xiap and ciap1 message levels” value [4, 11] was “remained relatively unchanged” and the “ciap2 mRNA level increase above untreated controls” value [4, 11] was “up to 30 fold”.
